# Measured values taken from patent US11569513B1, “Redox flow battery carrier molecule” (Triad National Security, LLC, priority 2020, dated 2023).
# How the values were obtained:
# Assay type in all cases: physicochemical
# [1] = Bulk cycling with broadened voltage window (galvanostatic 2 electron charging and discharging); conditions: voltage window broadened to include the next wave; over 25 cycles
# Description: FIG. 6. Galvanostatic 2 electron charging and discharging of a 1 mM solution of Fe(TREN-Pic) in 0.1 M TBAPF6 in MeCN, charging and discharging rates were both 1 mA and potential cutoffs were −2.14 V vs Ag^+ during charging and −0.4 V vs Ag^+ during discharging.
# FIG. 8. Metrics obtained from bulk electrolysis displaying high coulombic efficiencies for the charge/discharge cycling and the complexes capability to reversibly store multiple electron equivalents.
# (§1) In the negative portion of a cyclic voltammogram four features at −0.93, −2.10, −2.28, and −2.55V are observed with current ratios (i[cathodic]/i[anodic]) of 1.01, 0.67, 1.17, and 1.01 respectively. These were obtained with a 1 mM solution of Fe(TREN-Pic) in 0.1M tetrabutylammonium hexafluorophosphate in acetonitrile using a glassy carbon working electrode, platinum wire counter, and a 0.01M silver tetrafluoroborate reference electrode. When the −0.93V wave is subjected to bulk electrolytic cycling over 25 repetitions, a high Coulombic efficiency is calculated (˜95%) with an unoptimized slow decay in utilization (electrons stored per redox carrier molecule) of 4% over the first ten cycles. […] This represents only the third known complex to display this behavior (JACS, 2016, 15378 and Journal of Power Sources, 2016, 681).
# [2] = Bulk electrolytic cycling (galvanostatic 1 electron charging and discharging) of the −0.93V wave; conditions: over the first ten cycles, unoptimized
# Description: FIG. 3. Galvanostatic 1 electron charging and discharging of a 1 mM solution of Fe(TREN-Pic) in 0.1 M TBAPF6 in MeCN, charging and discharging rates were both 1 mA and potential cutoffs were −1.3 V vs Ag^+ during charging and −0.4 V vs Ag^+ during discharging.
# FIG. 5. Metrics obtained from bulk electrolysis displaying high coulombic efficiencies for the charge/discharge cycling.
# as §1
# [3] = Cyclic voltammogram, negative region, 1 mM solution in 0.1M TBAPF6 in acetonitrile
# Description: FIG. 2. Voltammogram of the […]/negative region of a 1 mM solution of Fe(TREN-Pic) in 0.1 M tetrabutylammonium hexafluorophosphate (TBAPF6) in acetonitrile (MeCN), obtained using a glassy carbon working electrode, a platinum wire counter electrode, and a 0.010 M AgBF4 reference electrode.
# as §1
substance,measurement,setting,value
Fe III tris(2-aminoethyl)amine (TREN) picolinic (PIC) [Fe(TREN-Pic)],decay over cycling,[1],significant decay
same,decay in utilization (electrons stored per redox carrier molecule),[2],4%
same,potential of first feature in negative portion of cyclic voltammogram,"[3]; 1 mM in 0.1M tetrabutylammonium hexafluorophosphate in acetonitrile, glassy carbon working electrode, platinum wire counter, 0.01M silver tetrafluoroborate reference, first feature",−0.93 V
same,current ratio (i[cathodic]/i[anodic]),[3]; feature at −0.93 V,1.01
same,current ratio (i[cathodic]/i[anodic]),[3]; feature at −2.10 V,0.67
same,current ratio (i[cathodic]/i[anodic]),[3]; feature at −2.28 V,1.17
same,current ratio (i[cathodic]/i[anodic]),[3]; feature at −2.55 V,1.01
same,potential of fourth feature in negative portion of cyclic voltammogram,"[3]; same conditions, fourth feature",−2.55 V
same,potential of second feature in negative portion of cyclic voltammogram,"[3]; same conditions, second feature",−2.10 V
same,potential of third feature in negative portion of cyclic voltammogram,"[3]; same conditions, third feature",−2.28 V
